Measurements: patent US5705185A, “Transdermal delivery of estradiol and process for manufacturing said device” (priority 1996, dated 1998)

Key:
[1] = test system: 17-β-hydroxysteroid dehydrogenase; assay: purified 17-β-hydroxysteroid dehydrogenase assay, absorbance at 340nm (NADH); format: biochemical; settings: propylene glycol 10% in volume
Protocol: Another experimentation in this field was carried out using purified 17-β-hydroxysteroid dehydrogenase, 17-β-estradiol as a substrate and NAD^+ as a cofactor in the control tubes, in sample tubes 10% in volume of propyleneglycol was added. The continuous monitoring of the increase in the absorbance at 340nm generated by the appearance of NADH was the method used. […] Therefore the inhibition of the conversion is no mediated by a denaturalization process of the enzyme, therefore we postulated that the process of inhibition was governed by competition for NAD^+.

[2] = test system: enzymatic degradation from estradiol to estrone in human skin; assay: inhibition of the estradiol metabolism in human skin; settings: for % Estradiol Metabolized (E1 *100/E1 + E2): 10% PPG; for Inhibition %: 10% PPG versus control; for Estradiol / Estrone: saturated estradiol in saline + 10% PPG, human skin without stratum corneum, n=3; for % estrone formed (percent of estradiol conversion to estrone): n = 4
[3] = in vitro permeation through mouse skin in diffusion chamber; format: in vitro ADME, Swiss mice; settings: n = 4
Excerpt: […]. The techniques of this permeation studies is described afterwards.
Furthermore, "in vitro" permeation experiments with abdominal mouse skin and human skin were made using the diffusion chamber that is schematically shown in longitudinal section in FIG. 1.
The diffusion chamber illustrated in FIG. 1 comprises a body having front and rear tubular sections 1 and 2 having respective annular end flanges 3 and 4 by which the sections 1 and 2 are joined together. A sample of skin 5, with attached estradiol delivery device D to be tested facing the rear tubular section 2, is clamped between the flanges 3 and 4 by means of a pinch clamp 6.
The tubular section 1 has an internal chamber 7 with an opening 8 furnished with a glass stopper 9. The tubular section 1 has also a jacket 10 through which warm water can be circulated to maintain the contents of the chamber 7 at the desired temperature. The chamber 7 contains a magnetic bar stirrer 11 which is rotatable by means of a magnetic field applied externally means (not shown) to enable the contents of the chamber 7 to be stirred.
The tubular section 2 has a chamber 12 with an opening 13 furnished with a glass stopper 14.
In the assay, the skin of Swiss mice, shaved 72 hours before the experiments, was employed. Also used was human skin obtained from human skin samples (remnants of plastic surgery) which have been eliminated the adipose tissue by scissors, and then was cut to 500 microns by a dermatome.
[…]. Each experiment was started by loading chamber 7 with 5.5 ml of a receptor solution of sodium lauryl sulfate (0.5%), starting the stirrer 11 and taking samples at pre determined periods of time and the subsequent determination of permeated estradiol (by HPLC).

[4] = saturation of estradiol in the coating layer; settings: bad appearance, diminished adhesive properties

Question: What does the source list for `CC(O)CO` (centres unmarked) [Propylene glycol, propylene glycol]?
Answer: increase in the absorbance at 340nm (NADH) ([1]; 0 min): 0; effect on purified enzyme activity versus control ([1]; 17-β-estradiol substrate, NAD+ cofactor): No differences; increase in the absorbance at 340nm (NADH) ([1]; 1 min): 15; increase in the absorbance at 340nm (NADH) ([1]; 2 min): 30; increase in the absorbance at 340nm (NADH) ([1]; 3 min): 47; increase in the absorbance at 340nm (NADH) ([1]; 4 min): 60; increase in the absorbance at 340nm (NADH) ([1]; 5 min): 72; increase in the absorbance at 340nm (NADH) ([1]; 6 min): 95; increase in the absorbance at 340nm (NADH) ([1]; 7 min): 105; increase in the absorbance at 340nm (NADH) ([1]; 8 min): 113; increase in the absorbance at 340nm (NADH) ([1]; 9 min): 120; increase in the absorbance at 340nm (NADH) ([1]; 10 min): 125; increase in the absorbance at 340nm (NADH) ([1]; 11 min): 128; increase in the absorbance at 340nm (NADH) ([1]; 12 min): 130; % Estradiol Metabolized (E1 *100/E1 + E2) ([2]; Exp. 1): 7.4%; Inhibition % ([2]; Exp. 1): 66.0%; Estradiol ([2]; Exp. 1): 3.51 nmol/mL; Estrone ([2]; Exp. 1): 0.27 nmol/mL; % Estradiol Metabolized (E1 *100/E1 + E2) ([2]; Exp. 2): 6.55%; Inhibition % ([2]; Exp. 2): 57.2%; Estradiol ([2]; Exp. 2): 2.71 nmol/mL; Estrone ([2]; Exp. 2): 0.19 nmol/mL; propyleneglycol concentration at which enzymatic conversion of estradiol to estrone is minimized ([2]; FIG. 4C): 10 % wt; % estrone formed (percent of estradiol conversion to estrone) ([2]; PG 0.25%): 37.9%; % estrone formed (percent of estradiol conversion to estrone) ([2]; PG 0.5%): 33.6%; % estrone formed (percent of estradiol conversion to estrone) ([2]; PG 1.5%): 26.8%; % estrone formed (percent of estradiol conversion to estrone) ([2]; PG 3%): 20.6%; % estrone formed (percent of estradiol conversion to estrone) ([2]; PG 5%): 16.1%; % estrone formed (percent of estradiol conversion to estrone) ([2]; PG 10%): 9.2%; inhibition of enzymatic degradation of estradiol to estrone ([2]; tests conducted by the applicant): inhibits the enzymatic mechanism that causes degradation of estradiol to estrone

Question: Which “Flux through mouse skin at 24h” value ([3]; estradiol concentration 1 wt % in coating layer) does the source give for `C[C@]12CC[C@@H]3c4ccc(O)cc4CC[C@H]3[C@@H]1CC[C@@H]2O` [Estradiol, estradiol] here?
Answer: 1.8 ± 0.29 μg/cm^2 *h

Question: What about the “Flux through mouse skin at 24h” value ([3]; estradiol concentration 1.5 wt % in coating layer) of the same compound?
Answer: 2.2 ± 0.25 μg/cm^2 *h

Question: And the “Flux through mouse skin at 24h” value ([3]; estradiol concentration 1.75 wt % in coating layer)?
Answer: 2.8 ± 0.33 μg/cm^2 *h

Question: What about the “Flux through mouse skin at 24h” value ([3]; estradiol concentration 1.8 wt % in coating layer) of the same compound?
Answer: 3.28 ± 0.41 μg/cm^2 *h

Question: And the “Flux through mouse skin at 24h” value ([3]; estradiol concentration 2 wt % in coating layer)?
Answer: 3.31 ± 0.45 μg/cm^2 *h

Question: And the “Flux through mouse skin at 24h” value ([3]; estradiol concentration 2.5 wt % in coating layer)?
Answer: 3.39 ± 0.37 μg/cm^2 *h

Question: What about the “concentration above which estradiol precipitates in the polymeric matrix” value [4] of the same compound?
Answer: above 2.1 wt %

Question: What about the “transformation of estradiol in contact with the enzymes of the skin” value ([2]; permeation through skin) of the same compound?
Answer: enzymatically oxidazed to estrone
